Data on 13 compounds can be found in paper PMC7129073 (Clinical Microbiology and Infection, 2015).

Values after ≈ are worked out from the molar mass of the structure shown. Like-named read-outs stand apart in the source and are kept apart here. Some results are limits rather than exact numbers.

The subject of series [1] is Pseudomonas putida clinical isolates. Nature of the series: Agar dilution MIC. The series is classed as cell-based. Background: In agar dilution the substance is mixed into plates at graded concentrations.
Series [2] has as its system Streptococcus agalactiae strains P0162 and P0425. Nature of the series: Microdilution. The series is classed as cell-based. A general note: Broth dilution looks for growth in wells or tubes with falling amounts of substance.
For series [3], the system named is Salmonella, other 49 serotypes. The experiment in a line: Disk diffusion, food isolates Spain. The series is classed as cell-based. The following applies: n = 115. A general note: Agar diffusion results depend on both activity and mobility in agar.
The test system of series [4] is Salmonella serotype Typhimurium. The experiment in a line: Disk diffusion, food isolates Spain. The series is classed as cell-based. The following applies: n = 53.
The subject of a further series is Acinetobacter. The experiment in a line: Disk diffusion. It is filed as cell-based. The following applies: 37 isolates selected as resistant to beta-lactams.
In series [5] the test system is Salmonella serotype Enteritidis. Nature of the series: Disk diffusion, food isolates Spain. It is filed as cell-based. The following applies: n = 96.
Another series deals with MSSA. The experiment in a line: Agar dilution MIC. As to conditions: for MIC50 / MIC90: Staphylococcus aureus, MSSA; for MIC range: n = 200. The series is classed as cell-based, Staphylococcus aureus.
The subject of another series is E. faecalis. The experiment in a line: E-test susceptibility. It is filed as cell-based, Enterococcus faecalis.
In a further series the test system is Nocardia spp. The experiment in a line: E-test on Mueller Hinton agar, 81 clinical isolates. The series is classed as cell-based. The following applies: for MIC50 / MIC90: Nocardia; for MIC range: read after 48 and 72 h.
Series [6] deals with viridans group streptococci (VGS). The experiment in a line: MIC. The series is classed as cell-based.
Another series relates to enterococci. Nature of the series: Disk diffusion and E-test, faecal isolates of cancer patients. It is filed as cell-based, Enterococcus. As to conditions: 38 strains.
The test system of series [7] is methicillin resistant Staphylococcus aureus. Nature of the series: NCCLS agar dilution MIC. The series is classed as cell-based. As to conditions: n = 53.
Another series concerns E. faecium. The experiment in a line: E-test susceptibility. The series is classed as cell-based, Enterococcus faecium.
Series [8] concerns viridans group streptococci (VgS) and Streptococcus bovis. The experiment in a line: Broth microdilution and disk diffusion. The following applies: nine species. The series is classed as cell-based.
The test system of the next series is MRSA. The experiment in a line: Agar dilution MIC. It is filed as cell-based, Staphylococcus aureus. The following applies: for MIC50 / MIC90: Staphylococcus aureus, MRSA; for MIC range: n = 50.
In series [9] the test system is methicillin susceptible Staphylococcus aureus. Nature of the series: NCCLS agar dilution MIC. The series is classed as cell-based.
Series [10] in a line: Linezolid in paediatric oncohaematological patients, retrospective. It is filed as in vivo, human.
The test system of series [11] is glycopeptide intermediate Staphylococcus species (GISS). The experiment in a line: VITEK II, screening plate and E test, blood isolates. The following applies: for resistance rate: 73 GISS strains. The series is classed as cell-based, coagulase-negative Staphylococci.
The test system of series [12] is S. pneumoniae. The experiment in a line: PROTEKT Italy, NCCLS microdilution. The series is classed as cell-based, Streptococcus pneumoniae.
Series [13] has as its system S. pneumoniae. The experiment in a line: Broth microdilution. The series is classed as cell-based, Streptococcus pneumoniae. The following applies: 275 isolates.
The subject of series [14] is S. pneumoniae. It is filed as cell-based, Streptococcus pneumoniae.
For another series, the system named is Salmonella enterica. The experiment in a line: VITEK, NCCLS microdilution and disc diffusion of quinolones. The series is classed as cell-based.
A further series deals with N.gonorrhoeae. Nature of the series: microbe, parasite or virus in culture. The following applies: Neisseria gonorrhoeae. It is filed as cell-based.
The subject of the next series is Shigella spp. Nature of the series: Disk diffusion, stool isolates Tehran. It is filed as cell-based. The following applies: 96 isolates.
Series [15] can be described thus: Phase 3 trial, complicated intra-abdominal infections. The series is classed as in vivo, human.
Another series relates to S. pneumoniae (SPN). Nature of the series: NCCLS broth microdilution, fluoroquinolones 1999–2004. The series is classed as cell-based, Streptococcus pneumoniae. The following applies: Streptococcus pneumoniae, read-out: MIC90 during the six years, 1999–2004.
A further series has as its system S. aureus. The experiment in a line: E-test susceptibility. The series is classed as cell-based, Staphylococcus aureus.
In the next series the test system is C. albicans. Nature of the series: Antifungal susceptibility. It is filed as cell-based, Candida albicans.

For the compound `C[C@@H]1CN(c2c(F)c(N)c3c(=O)c(C(=O)O)cn(C4CC4)c3c2F)C[C@H](C)N1` [sparfloxacin], the MIC in series [1] is above 128 mg/L; in [2] (strain P0162 (ParC Ser79Phe, GyrA Glu85Ala)), 4 mg/L (≈ 10.2 µM); in series [2] (strain P0425 (ParC Ser79Phe, GyrA Glu85Lys)) it was above 32 mg/L.
As to `CCN[C@@H]1C[C@H](N)[C@@H](O[C@H]2OC(CN)=CC[C@H]2N)[C@H](O)[C@H]1O[C@H]1OC[C@](C)(O)[C@H](NC)[C@H]1O` [netilmicin], the “resistance rate (NCCLS M100-S13)” value in series [3] worked out at 0%; in [4] it was 4%; in [5], 1%. For the same compound, in the series with Acinetobacter, the resistant isolates came to 5.4%.
On to `CC(=O)NC[C@H]1CN(c2ccc(N3CCOCC3)c(F)c2)C(=O)O1` [linezolid], for which the MIC50 (as a rule, the lowest concentration that inhibits either 50% of growth or 50% of the strains tested, depending on the study) is below 2 mg/L in the series with MSSA; 1 mg/L (≈ 2.96 µM) in the series on Nocardia spp.; 1 mg/L (≈ 2.96 µM) in [6]; below 2 mg/L against MRSA; 2 mg/L (≈ 5.93 µM) in [9] (Staphylococcus aureus). For the same compound, the MIC90 (in general, an inhibitory concentration at the 90% level, which refers to growth in some studies and to a panel of isolates in others) with MSSA is below 2 mg/L; in the series on Nocardia spp., 2 mg/L (≈ 5.93 µM); in series [6] it was 1 mg/L (≈ 2.96 µM); with MRSA, below 2 mg/L; in series [9] (Staphylococcus aureus), 2 mg/L (≈ 5.93 µM). In addition, the MIC range with MSSA was 2 mg/L (≈ 5.93 µM); in the series on Nocardia spp., 0.047 to 3 mg/L; in series [7], 1 to 32 mg/L; against MRSA, 2 mg/L (≈ 5.93 µM); in series [9] (n = 41), 0.5 to 2 mg/L. Besides, the Susceptibility is 98% in the series on E. faecalis (ICU, SRGA breakpoints, tigecycline tentative ≤2 μg/ml); 99% in the series on E. faecalis (non-ICU); 98% in the series on E. faecium (ICU); 99% in the series with E. faecium (non-ICU). Further, in series [6] (NCCLS), the “susceptibility of all isolates” value is “All isolates were susceptible”. In addition, in the series with enterococci, the “sensitivity of all isolated strains” value is reported as “All the isolated strains were sensitive”. Moreover, the “% S, range between species” value in [8] was 99.1 – 100.0%. Further, in series [10] (10 mg/kg bid iv, combined therapy, 38/50 courses), the clinical response is recorded as 76%. The “courses discontinued due to exacerbation of cytopenia” value in series [10] (1 course) stood at 2%. In addition, the “eradication of Gram(+) organisms in mixed fungal and bacterial infection” value in series [10] (4/50 courses) was found to be 8%. Further, the “complete resolution after ineffective vancomycin therapy” value in series [10] (8/16) turned out to be 50%. In addition, the “eradication, documented Gram(+) infection” value in series [10] (13/13) turned out to be 100%. For the same compound, the “complete resolution of the symptoms” value in series [10] (34/50 courses) is 68%. Besides, the “sensitivity of all GISS strains” value in series [11] is recorded as “all GISS strains demonstrated sensitivity”.
For `CO[C@H]1/C=C/O[C@@]2(C)Oc3c(C)c(O)c4c(O)c(c(/C=N/N5CCN(C)CC5)c(O)c4c3C2=O)NC(=O)/C(C)=C\C=C\[C@H](C)[C@H](O)[C@@H](C)[C@@H](O)[C@@H](C)[C@H](OC(C)=O)[C@@H]1C` [rifampin], the susceptible in the series on S. pneumoniae [12] (year 1: 2002) turned out to be 96.7%; with S. pneumoniae [12] (year 2: 2003) it was 98.9%. Moreover, the MIC50 is below 0.0075 mg/L in the series on MSSA and below 32 mg/L in the series with MRSA. For the same compound, the MIC90 was below 0.0375 mg/L in the series with MSSA and below 32 mg/L against MRSA. For the same compound, in the series with S. pneumoniae [13], the Susceptibility was found to be 99.3%. In addition, the resistance rate in [11] is recorded as 32,8%.
In turn, `CC1COc2c(N3CCN(C)CC3)c(F)cc3c(=O)c(C(=O)O)cn1c23` (centres unmarked) [ofloxacin] came in with a resistant with S. pneumoniae [14] of 0%. Further, the resistant isolates in the series with Acinetobacter is on record as 43.2%. Besides, the MIC was 0.25 to 1 mg/L (≈ 0.692 to 2.77 µM) in the series with Salmonella enterica (read-out: NCCLS MIC, 37 NAL-R strains); at most 0.06 mg/L with Salmonella enterica (read-out: NCCLS MIC, NAL-S strains); 8 mg/L (≈ 22.1 µM) with N.gonorrhoeae (strain 76mu6); 8 mg/L (≈ 22.1 µM) in the series with N.gonorrhoeae (strain 76mu10); 4 mg/L (≈ 11.1 µM) in the series with N.gonorrhoeae (strain 92mu6); 4 mg/L (≈ 11.1 µM) against N.gonorrhoeae (strain 92mu13). In the series on Shigella spp., this compound gave a sensitive of 100%. In addition, the resistance rate in [11] is 84,9%.
As for `CN(C)c1ccc(O)c2c1C[C@H]1C[C@H]3[C@H](N(C)C)C(O)=C(C(N)=O)C(=O)[C@@]3(O)C(O)=C1C2=O` [minocycline], in the series with Nocardia spp., the MIC50 worked out at 1.5 mg/L (≈ 3.28 µM), the MIC90 was determined as 3 mg/L (≈ 6.56 µM) and the MIC range was 0.016 to 4 mg/L. In addition, in the series with Acinetobacter, the resistant isolates was determined as 45.9%. For the same compound, the MIC in series [1] was above 16 mg/L.
For the compound `[H]/N=C(/N)N[C@H]1[C@H](O)[C@@H](O)[C@H](O[C@@H]2O[C@@H](C)[C@](O)(C=O)[C@H]2O[C@@H]2O[C@@H](CO)[C@H](O)[C@@H](O)[C@@H]2NC)[C@@H](N/C(N)=N\[H])[C@@H]1O` [streptomycin], the “resistance rate (NCCLS M100-S13)” value is given as 59% in series [3], 53% in series [4] and 1% in series [5]. Also, the high-level resistance in [6] (107 strains) is 10.3%.
On to imipenem/cilastatin [IMI/CIS], for which the “clinical cure rate at TOC, ME group” value in [15] (TGC 100 mg then 50 mg q12h iv, IMI/CIS 500/500 mg q6h, 5–14 days) was found to be 82.4%. In series [15] (adverse events), this compound showed a nausea of 24.8% and a vomiting of 19.4%. For the same compound, in [15] (same regimens), the “clinical cure rate at TOC, m-mITT cohort” value is listed as 78.2%.
As to quinupristin/dalfopristin, in series [6] (107 strains, 1990–2003), the MIC50 is 0.5 mg/L and the MIC90 was determined as 2 mg/L. Moreover, in series [8], the “% S, range between species” value is 99.0 – 100.0%. Besides, the “sensitivity of all GISS strains” value in series [11] is “all GISS strains demonstrated sensitivity”.
Compound `C[C@H]1COc2c(C3(N)CC3)c(F)cc3c(=O)c(C(=O)O)cn1c23` [pazufloxacin] showed an MIC in series [1] above 128 mg/L.
Consider `COc1c(N2CCNC(C)C2)c(F)cc2c(=O)c(C(=O)O)cn(C3CC3)c12` (centres unmarked) [gatifloxacin], for which the MIC50 in the series with MSSA was below 0.0625 mg/L; in series [6] it was 0.25 mg/L (≈ 0.666 µM); in the series on MRSA it was below 4 mg/L. Besides, the MIC90 was below 0.125 mg/L against MSSA, 0.5 mg/L (≈ 1.33 µM) with S. pneumoniae (SPN), 0.25 mg/L (≈ 0.666 µM) in series [6] and below 4 mg/L against MRSA. Further, the results for the MIC range in the series on MSSA and against MRSA were 0.0625 to 4 mg/L (≈ 0.166 to 10.7 µM) and 4 mg/L (≈ 10.7 µM), respectively. For the same compound, the resistant isolates in the series on Acinetobacter was found to be 83.8%. Also, in [1], the MIC is above 128 mg/L.
For `CC(=O)O[C@H]1C[C@@]2(C)[C@@H](C[C@@H](O)[C@H]3[C@@]4(C)CC[C@@H](O)[C@@H](C)[C@@H]4CC[C@@]32C)/C1=C(\CCC=C(C)C)C(=O)O` [fusidic acid], the Susceptibility with S. aureus (ICU, SRGA breakpoints, tigecycline tentative S ≤2 μg/ml) turned out to be 91%; with S. aureus (non-ICU), 93%.
Regarding `Nc1nc(=O)[nH]cc1F` [flucitozine], the “susceptibility of all tested strains” value with C. albicans is “susceptible”.
